# Columns and labels:
# Type in all cases: in vivo
# [1] = tested on: maize; assay: Crop safety study in greenhouse; conditions: 7.5-37.5 g a.i./hm^2; pre-emergence and post-emergence application
# Text: (§1) Seeds of soybean, cotton, maize, wheat and rice were sown in nutrition soil in paper pot (9 cm diameter), covered with soil in 1 cm and grown in the greenhouse under good growth conditions (temperature, atmospheric humidity, water supply). The compounds of the present invention as emulsifiable concentrate, were applied in pre-emergence and post-emergence treatment by track sprayer (Engineer Research Ltd., pressure 1.95 kg/cm^2, volume 500 L/hm^2, track speed 1.48 km/h). Pre-emergence treatment was conducted after seeding 24 hours and post-emergence treatment was done when the respective weeds reached predetermined leaf stage (soybean and cotton at 2- to 4-leaf stage and maize, wheat and rice at 3-leaf stage), the state of growth of the respective crops were visually observed to determine the safety in accordance with the following evaluation standard.
# (§2) Safety rating scale (%): 0 means no damage to crops; 100 means to kill crops completely.
# [2] = tested on: rice; assay: Crop safety study in greenhouse; conditions: 7.5-37.5 g a.i./hm^2; pre-emergence and post-emergence application
# Text: as §1, §2
# [3] = tested on: wheat; assay: Crop safety study in greenhouse; conditions: 7.5-37.5 g a.i./hm^2; pre-emergence and post-emergence application
# Text: as §1, §2
# [4] = tested on: Abutilon theophrasti Medic.; assay: Bioassay of herbicidal activity in greenhouse (further screening)
# Summary of the method: (§3)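 Weeds grown from seed in soil pots in greenhouse; emulsifiable-concentrate compounds applied by track sprayer pre-emergence (24 h after sowing) or post-emergence (grass 2–3-leaf, broad-leaf 2–4-leaf stage). Growth inhibition (%) scored visually, 0 = no action, 100 = all dead or not emerged.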
# [5] = tested on: Echinochloa crus-galli (L.) Beauv.; assay: as above
# Summary of the method: as §3
# [6] = tested on: Zinnia elegans Jacq.; assay: as above
# Summary of the method: as §3
# [7] = tested on: Setaria glauca (L.) Beauv.; assay: as above
# Summary of the method: as §3
# [8] = tested on: broad-leaf weeds and grass weeds; assay: General screening of herbicidal activity in greenhouse; conditions: 1000 g a.i./hm^2;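 note: 0 means no visible effect and 100 means all weeds dead or not emerged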
# Summary of the method: as §3
structure (smiles),measurement,setting,value
CC(C)C(=O)OCC1(C)CC(c2cc(-n3c(=O)cc(C(F)(F)F)n(C)c3=O)c(F)cc2Cl)=NO1 (stereo not shown) [Compound 46],"Crop safety, maize",[1],good safety
same,"Crop safety, rice",[2],good safety
same,"Crop safety, wheat",[3],good safety
same,"Growth inhibition rate, Post-emergence treatment, Abutilon theophrasti Medic.",[4]; dose 7.5 g a.i./hm^2,98%
same,"Growth inhibition rate, Post-emergence treatment, Abutilon theophrasti Medic.",[4]; dose 15 g a.i./hm^2,100%
same,"Growth inhibition rate, Post-emergence treatment, Abutilon theophrasti Medic.",[4]; dose 37.5 g a.i./hm^2,100%
same,"Growth inhibition rate, Post-emergence treatment, Abutilon theophrasti Medic.",[4]; dose 150 g a.i./hm^2,100%
same,"Growth inhibition rate, Post-emergence treatment, Abutilon theophrasti Medic.",[4]; dose 600 g a.i./hm^2,100%
same,"Growth inhibition rate, Pre-emergence treatment, Abutilon theophrasti Medic.",[4]; dose 7.5 g a.i./hm^2,50%
same,"Growth inhibition rate, Pre-emergence treatment, Abutilon theophrasti Medic.",[4]; dose 15 g a.i./hm^2,100%
same,"Growth inhibition rate, Pre-emergence treatment, Abutilon theophrasti Medic.",[4]; dose 37.5 g a.i./hm^2,100%
same,"Growth inhibition rate, Pre-emergence treatment, Abutilon theophrasti Medic.",[4]; dose 150 g a.i./hm^2,100%
same,"Growth inhibition rate, Pre-emergence treatment, Abutilon theophrasti Medic.",[4]; dose 600 g a.i./hm^2,100%
same,"Growth inhibition rate, Post-emergence treatment, Echinochloa crus-galli (L.) Beauv.",[5]; dose 7.5 g a.i./hm^2,20%
same,"Growth inhibition rate, Post-emergence treatment, Echinochloa crus-galli (L.) Beauv.",[5]; dose 15 g a.i./hm^2,25%
same,"Growth inhibition rate, Post-emergence treatment, Echinochloa crus-galli (L.) Beauv.",[5]; dose 37.5 g a.i./hm^2,30%
same,"Growth inhibition rate, Post-emergence treatment, Echinochloa crus-galli (L.) Beauv.",[5]; dose 150 g a.i./hm^2,75%
same,"Growth inhibition rate, Post-emergence treatment, Echinochloa crus-galli (L.) Beauv.",[5]; dose 600 g a.i./hm^2,98%
same,"Growth inhibition rate, Pre-emergence treatment, Echinochloa crus-galli (L.) Beauv.",[5]; dose 7.5 g a.i./hm^2,10%
same,"Growth inhibition rate, Pre-emergence treatment, Echinochloa crus-galli (L.) Beauv.",[5]; dose 15 g a.i./hm^2,15%
same,"Growth inhibition rate, Pre-emergence treatment, Echinochloa crus-galli (L.) Beauv.",[5]; dose 37.5 g a.i./hm^2,50%
same,"Growth inhibition rate, Pre-emergence treatment, Echinochloa crus-galli (L.) Beauv.",[5]; dose 150 g a.i./hm^2,95%
same,"Growth inhibition rate, Pre-emergence treatment, Echinochloa crus-galli (L.) Beauv.",[5]; dose 600 g a.i./hm^2,100%
same,"Growth inhibition rate, Post-emergence treatment, Zinnia elegans Jacq.",[6]; dose 7.5 g a.i./hm^2,98%
same,"Growth inhibition rate, Post-emergence treatment, Zinnia elegans Jacq.",[6]; dose 15 g a.i./hm^2,98%
same,"Growth inhibition rate, Post-emergence treatment, Zinnia elegans Jacq.",[6]; dose 37.5 g a.i./hm^2,100%
same,"Growth inhibition rate, Post-emergence treatment, Zinnia elegans Jacq.",[6]; dose 150 g a.i./hm^2,100%
same,"Growth inhibition rate, Post-emergence treatment, Zinnia elegans Jacq.",[6]; dose 600 g a.i./hm^2,100%
same,"Growth inhibition rate, Pre-emergence treatment, Zinnia elegans Jacq.",[6]; dose 7.5 g a.i./hm^2,40%
same,"Growth inhibition rate, Pre-emergence treatment, Zinnia elegans Jacq.",[6]; dose 15 g a.i./hm^2,45%
same,"Growth inhibition rate, Pre-emergence treatment, Zinnia elegans Jacq.",[6]; dose 37.5 g a.i./hm^2,95%
same,"Growth inhibition rate, Pre-emergence treatment, Zinnia elegans Jacq.",[6]; dose 150 g a.i./hm^2,100%
same,"Growth inhibition rate, Pre-emergence treatment, Zinnia elegans Jacq.",[6]; dose 600 g a.i./hm^2,100%
same,"Growth inhibition rate, Post-emergence treatment, Setaria glauca (L.) Beauv.",[7]; dose 7.5 g a.i./hm^2,45%
same,"Growth inhibition rate, Post-emergence treatment, Setaria glauca (L.) Beauv.",[7]; dose 15 g a.i./hm^2,55%
same,"Growth inhibition rate, Post-emergence treatment, Setaria glauca (L.) Beauv.",[7]; dose 37.5 g a.i./hm^2,55%
same,"Growth inhibition rate, Post-emergence treatment, Setaria glauca (L.) Beauv.",[7]; dose 150 g a.i./hm^2,80%
same,"Growth inhibition rate, Post-emergence treatment, Setaria glauca (L.) Beauv.",[7]; dose 600 g a.i./hm^2,100%
same,"Growth inhibition rate, Pre-emergence treatment, Setaria glauca (L.) Beauv.",[7]; dose 7.5 g a.i./hm^2,75%
same,"Growth inhibition rate, Pre-emergence treatment, Setaria glauca (L.) Beauv.",[7]; dose 15 g a.i./hm^2,60%
same,"Growth inhibition rate, Pre-emergence treatment, Setaria glauca (L.) Beauv.",[7]; dose 37.5 g a.i./hm^2,95%
same,"Growth inhibition rate, Pre-emergence treatment, Setaria glauca (L.) Beauv.",[7]; dose 150 g a.i./hm^2,100%
same,"Growth inhibition rate, Pre-emergence treatment, Setaria glauca (L.) Beauv.",[7]; dose 600 g a.i./hm^2,100%
same,pre-emergence and post-emergence herbicidal activity against broad-leaf weeds and grass weeds,[8],good
CC(=O)OCC1(C)CC(c2cc(-n3c(=O)cc(C(F)(F)F)n(C)c3=O)c(F)cc2Cl)=NO1 (stereo not shown) [Compound 43],"Crop safety, maize",[1],good safety
same,"Crop safety, rice",[2],good safety
same,"Crop safety, wheat",[3],good safety
same,"Growth inhibition rate, Post-emergence treatment, Abutilon theophrasti Medic.",[4]; dose 7.5 g a.i./hm^2,100%
same,"Growth inhibition rate, Post-emergence treatment, Abutilon theophrasti Medic.",[4]; dose 15 g a.i./hm^2,100%
same,"Growth inhibition rate, Post-emergence treatment, Abutilon theophrasti Medic.",[4]; dose 37.5 g a.i./hm^2,100%
same,"Growth inhibition rate, Post-emergence treatment, Abutilon theophrasti Medic.",[4]; dose 150 g a.i./hm^2,100%
same,"Growth inhibition rate, Post-emergence treatment, Abutilon theophrasti Medic.",[4]; dose 600 g a.i./hm^2,100%
same,"Growth inhibition rate, Pre-emergence treatment, Abutilon theophrasti Medic.",[4]; dose 7.5 g a.i./hm^2,100%
same,"Growth inhibition rate, Pre-emergence treatment, Abutilon theophrasti Medic.",[4]; dose 15 g a.i./hm^2,100%
same,"Growth inhibition rate, Pre-emergence treatment, Abutilon theophrasti Medic.",[4]; dose 37.5 g a.i./hm^2,100%
same,"Growth inhibition rate, Pre-emergence treatment, Abutilon theophrasti Medic.",[4]; dose 150 g a.i./hm^2,100%
same,"Growth inhibition rate, Pre-emergence treatment, Abutilon theophrasti Medic.",[4]; dose 600 g a.i./hm^2,100%
same,"Growth inhibition rate, Post-emergence treatment, Echinochloa crus-galli (L.) Beauv.",[5]; dose 7.5 g a.i./hm^2,10%
same,"Growth inhibition rate, Post-emergence treatment, Echinochloa crus-galli (L.) Beauv.",[5]; dose 15 g a.i./hm^2,20%
same,"Growth inhibition rate, Post-emergence treatment, Echinochloa crus-galli (L.) Beauv.",[5]; dose 37.5 g a.i./hm^2,10%
same,"Growth inhibition rate, Post-emergence treatment, Echinochloa crus-galli (L.) Beauv.",[5]; dose 150 g a.i./hm^2,90%
same,"Growth inhibition rate, Post-emergence treatment, Echinochloa crus-galli (L.) Beauv.",[5]; dose 600 g a.i./hm^2,100%
same,"Growth inhibition rate, Pre-emergence treatment, Echinochloa crus-galli (L.) Beauv.",[5]; dose 7.5 g a.i./hm^2,10%
same,"Growth inhibition rate, Pre-emergence treatment, Echinochloa crus-galli (L.) Beauv.",[5]; dose 15 g a.i./hm^2,60%
same,"Growth inhibition rate, Pre-emergence treatment, Echinochloa crus-galli (L.) Beauv.",[5]; dose 37.5 g a.i./hm^2,90%
same,"Growth inhibition rate, Pre-emergence treatment, Echinochloa crus-galli (L.) Beauv.",[5]; dose 150 g a.i./hm^2,95%
same,"Growth inhibition rate, Pre-emergence treatment, Echinochloa crus-galli (L.) Beauv.",[5]; dose 600 g a.i./hm^2,100%
same,"Growth inhibition rate, Post-emergence treatment, Zinnia elegans Jacq.",[6]; dose 7.5 g a.i./hm^2,98%
same,"Growth inhibition rate, Post-emergence treatment, Zinnia elegans Jacq.",[6]; dose 15 g a.i./hm^2,100%
same,"Growth inhibition rate, Post-emergence treatment, Zinnia elegans Jacq.",[6]; dose 37.5 g a.i./hm^2,100%
same,"Growth inhibition rate, Post-emergence treatment, Zinnia elegans Jacq.",[6]; dose 150 g a.i./hm^2,100%
same,"Growth inhibition rate, Post-emergence treatment, Zinnia elegans Jacq.",[6]; dose 600 g a.i./hm^2,100%
same,"Growth inhibition rate, Pre-emergence treatment, Zinnia elegans Jacq.",[6]; dose 7.5 g a.i./hm^2,0%
same,"Growth inhibition rate, Pre-emergence treatment, Zinnia elegans Jacq.",[6]; dose 15 g a.i./hm^2,25%
same,"Growth inhibition rate, Pre-emergence treatment, Zinnia elegans Jacq.",[6]; dose 37.5 g a.i./hm^2,50%
same,"Growth inhibition rate, Pre-emergence treatment, Zinnia elegans Jacq.",[6]; dose 150 g a.i./hm^2,100%
same,"Growth inhibition rate, Pre-emergence treatment, Zinnia elegans Jacq.",[6]; dose 600 g a.i./hm^2,100%
same,"Growth inhibition rate, Post-emergence treatment, Setaria glauca (L.) Beauv.",[7]; dose 7.5 g a.i./hm^2,70%
same,"Growth inhibition rate, Post-emergence treatment, Setaria glauca (L.) Beauv.",[7]; dose 15 g a.i./hm^2,80%
same,"Growth inhibition rate, Post-emergence treatment, Setaria glauca (L.) Beauv.",[7]; dose 37.5 g a.i./hm^2,25%
same,"Growth inhibition rate, Post-emergence treatment, Setaria glauca (L.) Beauv.",[7]; dose 150 g a.i./hm^2,95%
same,"Growth inhibition rate, Post-emergence treatment, Setaria glauca (L.) Beauv.",[7]; dose 600 g a.i./hm^2,100%
same,"Growth inhibition rate, Pre-emergence treatment, Setaria glauca (L.) Beauv.",[7]; dose 7.5 g a.i./hm^2,20%
same,"Growth inhibition rate, Pre-emergence treatment, Setaria glauca (L.) Beauv.",[7]; dose 15 g a.i./hm^2,35%
same,"Growth inhibition rate, Pre-emergence treatment, Setaria glauca (L.) Beauv.",[7]; dose 37.5 g a.i./hm^2,90%
same,"Growth inhibition rate, Pre-emergence treatment, Setaria glauca (L.) Beauv.",[7]; dose 150 g a.i./hm^2,98%
same,"Growth inhibition rate, Pre-emergence treatment, Setaria glauca (L.) Beauv.",[7]; dose 600 g a.i./hm^2,100%
same,pre-emergence and post-emergence herbicidal activity against broad-leaf weeds and grass weeds,[8],good

# Reference: patent publication US10550111B2, “Pyrimidine urea compound containing isoxazolines and use thereof” (SHENYANG SINOCHEM AGROCHEMICALS R&D CO., LTD, priority 2014, dated 2020)
